Assay [1] has as its target T1, F508delCFTR (Homo sapiens, UniProt P13569, DEL508-508).
T1 construct: expressed in transfected cells; host or cells: CFBE41o- human lung-derived epithelial cells (CFBE41o-F508delCFTR-HRP), doxycycline-inducible
Put plainly: Cell Surface Expression-Horse Radish Peroxidase (CSE-HRP) assay, test compound without co-corrector.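 For Emax: percent of on-plate 2 µM positive control corrector response over DMSO.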 In kind it is cell-based. The following applies: for Emax: maximum at any tested concentration, normalized to positive control, without co-corrector; for EC50: test compound without co-corrector. In outline:
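Compound without co-corrector was tested at eight 3-fold concentrations, top 20 μM, for 18-24 h at 33° C on doxycycline-induced (0.5 μg/mL, 72 h) CFBE41o- F508delCFTR-HRP cells. After DPBS washes, luminol luminescence gave % activity relative to on-plate positive control minus DMSO; EC50 came from triplicate-plate sigmoidal fitting.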

In assay [2] the target is T1, F508delCFTR. The assay is described as follows: Cell Surface Expression-Horse Radish Peroxidase (CSE-HRP) assay, test compound with co-corrector.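 For Maximum % activity (with co-corrector): percent of 2 µM positive control corrector over DMSO; co-corrector is that same compound.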 In kind it is cell-based. The following applies: with 2 μM co-corrector; for Maximum % activity (with co-corrector): maximum at any tested concentration, normalized to positive control. The method, boiled down:
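Surface-expression read-out: luminol luminescence from an HRP tag in the fourth exofacial loop of F508delCFTR, in doxycycline-induced (0.5 μg/mL, 72 h) CFBE41o- cells. Compound plus 2 μM co-corrector added for 18-24 h at 33° C., 8-point 3-fold series up to 20 μM. EC50 from a sigmoidal fit with variable Hill slope, normalised to positive control, triplicate plates.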

Bounds are passed on as bounds.

The Emax is the maximal effect, on the per cent scale that the assay sets. As usually defined, the EC50 is the concentration giving half of the maximal effect. The low end stands for greater potency, the high end for weaker potency.

T1 sequence (P13569 with tags, fused parts or gaps DEL508-508): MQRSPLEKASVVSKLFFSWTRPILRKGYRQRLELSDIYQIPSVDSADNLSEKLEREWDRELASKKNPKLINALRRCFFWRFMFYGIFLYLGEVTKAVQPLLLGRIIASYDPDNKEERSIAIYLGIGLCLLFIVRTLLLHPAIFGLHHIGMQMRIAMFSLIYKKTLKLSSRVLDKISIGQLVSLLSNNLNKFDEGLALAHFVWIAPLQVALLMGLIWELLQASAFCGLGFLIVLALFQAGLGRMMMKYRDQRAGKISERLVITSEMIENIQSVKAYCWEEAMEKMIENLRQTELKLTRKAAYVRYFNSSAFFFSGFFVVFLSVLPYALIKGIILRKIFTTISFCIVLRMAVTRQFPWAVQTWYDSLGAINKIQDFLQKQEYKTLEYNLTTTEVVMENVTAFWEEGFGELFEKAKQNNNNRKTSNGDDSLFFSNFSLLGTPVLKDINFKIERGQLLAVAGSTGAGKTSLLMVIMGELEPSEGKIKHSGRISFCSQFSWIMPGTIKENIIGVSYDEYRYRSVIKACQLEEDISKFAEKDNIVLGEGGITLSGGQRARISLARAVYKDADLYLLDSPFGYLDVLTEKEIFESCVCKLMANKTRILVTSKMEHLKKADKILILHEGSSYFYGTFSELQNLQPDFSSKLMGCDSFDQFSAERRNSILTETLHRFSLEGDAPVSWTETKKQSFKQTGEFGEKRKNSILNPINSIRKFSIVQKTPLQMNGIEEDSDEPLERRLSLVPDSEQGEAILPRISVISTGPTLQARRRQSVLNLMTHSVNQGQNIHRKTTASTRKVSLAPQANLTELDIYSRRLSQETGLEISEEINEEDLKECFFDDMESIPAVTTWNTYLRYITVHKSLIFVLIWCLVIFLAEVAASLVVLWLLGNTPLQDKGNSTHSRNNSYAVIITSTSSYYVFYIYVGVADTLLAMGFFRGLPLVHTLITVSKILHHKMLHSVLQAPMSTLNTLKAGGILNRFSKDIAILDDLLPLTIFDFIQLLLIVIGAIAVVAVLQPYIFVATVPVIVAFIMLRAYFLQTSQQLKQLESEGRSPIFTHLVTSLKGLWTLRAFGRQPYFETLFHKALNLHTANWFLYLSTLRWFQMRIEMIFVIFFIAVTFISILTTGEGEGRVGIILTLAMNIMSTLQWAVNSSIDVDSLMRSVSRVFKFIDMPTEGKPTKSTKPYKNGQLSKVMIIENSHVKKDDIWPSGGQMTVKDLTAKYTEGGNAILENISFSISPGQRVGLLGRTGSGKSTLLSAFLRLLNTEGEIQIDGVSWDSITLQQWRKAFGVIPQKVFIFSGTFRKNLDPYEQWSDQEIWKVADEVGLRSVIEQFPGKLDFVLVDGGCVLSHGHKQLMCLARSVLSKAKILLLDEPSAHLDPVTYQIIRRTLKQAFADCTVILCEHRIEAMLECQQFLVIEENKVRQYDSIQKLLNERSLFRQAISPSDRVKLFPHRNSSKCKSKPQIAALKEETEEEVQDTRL

Turning to `COc1ccc(OC)c2c1CC[C@@H]2C(=O)NS(=O)(=O)c1cccc2ncccc12` [Example I-91, (1S)-4,7-dimethoxy-N-(quinoline-5-sulfonyl)-2,3-dihydro-1H-indene-1-carboxamide], at F508delCFTR [1], the Emax is 50 to 150% and the EC50 was 3 to 10 µM. At F508delCFTR [2], the “Maximum % activity (with co-corrector)” value was “+++ (≥350)” and the EC50 was in the range of 3 to 10 µM.

At F508delCFTR [1], `COc1ccc(OC)c2c1CC[C@H]2C(=O)NS(=O)(=O)c1cccc2ncccc12` [Example I-92, (1R)-4,7-dimethoxy-N-(quinoline-5-sulfonyl)-2,3-dihydro-1H-indene-1-carboxamide] yielded an Emax of no less than 150% and an EC50 of 3 to 10 µM. Besides, at F508delCFTR [2], the “Maximum % activity (with co-corrector)” value is listed as “+++ (≥350)” and the EC50 was less than 3 µM.

For `COc1ccc(C(F)(F)F)c2c1[C@@H](C(=O)NS(=O)(=O)c1cccc3ccccc13)CC2` [Example I-93, (1S)-7-methoxy-N-(naphthalene-1-sulfonyl)-4-(trifluoromethyl)-2,3-dihydro-1H-indene-1-carboxamide], at F508delCFTR [1], the Emax is no less than 150% and the EC50 lay in the range of 3 to 10 µM. Moreover, on F508delCFTR [2], the “Maximum % activity (with co-corrector)” value is listed as “+++ (≥350)” and the EC50 lay in the range of 3 to 10 µM.

With `COc1ccc(C(F)(F)F)c2c1[C@H](C(=O)NS(=O)(=O)c1cccc3ccccc13)CC2` [Example I-94, (1R)-7-methoxy-N-(naphthalene-1-sulfonyl)-4-(trifluoromethyl)-2,3-dihydro-1H-indene-1-carboxamide], on F508delCFTR [1], the Emax was no less than 150% and the EC50 was less than 3 µM. At F508delCFTR [2], the “Maximum % activity (with co-corrector)” value is “+++ (≥350)” and the EC50 was less than 3 µM.

At F508delCFTR [1], `COc1ccc(C(F)(F)F)c2c1[C@@H](C(=O)NS(=O)(=O)c1cccc3ncccc13)CC2` [Example I-95, (1S)-7-methoxy-N-(quinoline-5-sulfonyl)-4-(trifluoromethyl)-2,3-dihydro-1H-indene-1-carboxamide] gave an Emax of no less than 150% and an EC50 of 3 to 10 µM. Also, at F508delCFTR [2], the “Maximum % activity (with co-corrector)” value was “+++ (≥350)” and the EC50 is less than 3 µM.

Turning to `COc1ccc(C(F)(F)F)c2c1[C@H](C(=O)NS(=O)(=O)c1cccc3ncccc13)CC2` [Example I-96, (1R)-7-methoxy-N-(quinoline-5-sulfonyl)-4-(trifluoromethyl)-2,3-dihydro-1H-indene-1-carboxamide], at F508delCFTR [1], the maximal response (Emax) is no less than 150% and the EC50 was less than 3 µM. In addition, on F508delCFTR [2], the “Maximum % activity (with co-corrector)” value is given as “+++ (≥350)” and the EC50 was less than 3 µM.

In the case of `CCC1(C(=O)NS(=O)(=O)c2cccc3cnn(C)c23)CCc2c(Cl)cccc21` (centres unmarked) [Example I-97, 4-chloro-1-ethyl-N-(1-methyl-1H-indazole-7-sulfonyl)-2,3-dihydro-1H-indene-1-carboxamide], on F508delCFTR [1], the Emax was no less than 150% and the EC50 is less than 3 µM. Also, on F508delCFTR [2], the “Maximum % activity (with co-corrector)” value is on record as “+++ (≥350)” and the EC50 was less than 3 µM.

Regarding `COc1ccc(Br)c2c1C(C(=O)NS(=O)(=O)c1cccc3cnn(C)c13)CC2` (centres unmarked) [Example I-98, 4-bromo-7-methoxy-N-(1-methyl-1H-indazole-7-sulfonyl)-2,3-dihydro-1H-indene-1-carboxamide], on F508delCFTR [1], the Emax was no less than 150% and the EC50 was less than 3 µM. Moreover, on F508delCFTR [2], the “Maximum % activity (with co-corrector)” value was “+++ (≥350)” and the EC50 is less than 3 µM.

`COc1ccc(C2CCC2)c2c1C(C(=O)NS(=O)(=O)c1cccc3cnn(C)c13)CC2` (centres unmarked) [Example I-99, 4-cyclobutyl-7-methoxy-N-(1-methyl-1H-indazole-7-sulfonyl)-2,3-dihydro-1H-indene-1-carboxamide]: at F508delCFTR [1], the Emax was no less than 150% and the EC50 was 3 to 10 µM. For the same compound, at F508delCFTR [2], the “Maximum % activity (with co-corrector)” value is given as “+++ (≥350)” and the EC50 is less than 3 µM.

At F508delCFTR [1], `COc1ccc(Br)c2c1C(C(=O)NS(=O)(=O)c1cccc3ncc(C)n13)CC2` (centres unmarked) [Example I-100, 4-bromo-7-methoxy-N-(3-methylimidazo[1,2-a]pyridine-5-sulfonyl)-2,3-dihydro-1H-indene-1-carboxamide] returned an Emax of no less than 150% and an EC50 of less than 3 µM. Moreover, at F508delCFTR [2], the “Maximum % activity (with co-corrector)” value is given as “+++ (≥350)” and the EC50 is less than 3 µM.

Consider `COc1ccc(Br)c2c1C(C(=O)NS(=O)(=O)c1cccc3nc(C)cn13)CC2` (centres unmarked) [Example I-101, 4-bromo-7-methoxy-N-(2-methylimidazo[1,2-a]pyridine-5-sulfonyl)-2,3-dihydro-1H-indene-1-carboxamide], for which, at F508delCFTR [1], the Emax is no less than 150% and the EC50 is less than 3 µM. In addition, on F508delCFTR [2], the “Maximum % activity (with co-corrector)” value is given as “+++ (≥350)” and the EC50 is less than 3 µM.

For `COc1ccc(C2CCC2)c2c1C(C(=O)NS(=O)(=O)c1cccc3ccccc13)C2` (centres unmarked) [Example I-102, 2-cyclobutyl-5-methoxy-N-(naphthalene-1-sulfonyl)bicyclo[4.2.0]octa-1,3,5-triene-7-carboxamide], at F508delCFTR [1], the Emax was no less than 150% and the EC50 was less than 3 µM. In addition, on F508delCFTR [2], the “Maximum % activity (with co-corrector)” value is “+++ (≥350)” and the EC50 was less than 3 µM.

Take `COc1ccc(C2CCC2)c2c1[C@H](C(=O)NS(=O)(=O)c1cccc3ncccc13)CC2` [Example I-103, (1R)-4-cyclobutyl-7-methoxy-N-(quinoline-5-sulfonyl)-2,3-dihydro-1H-indene-1-carboxamide]: on F508delCFTR [1], the Emax is no less than 150% and the EC50 lay within 3 to 10 µM. For the same compound, at F508delCFTR [2], the “Maximum % activity (with co-corrector)” value was “+++ (≥350)” and the EC50 lay in the range of 3 to 10 µM.

As for `COc1ccc(C2CCC2)c2c1[C@@H](C(=O)NS(=O)(=O)c1cccc3ncccc13)CC2` [Example I-104, (1S)-4-cyclobutyl-7-methoxy-N-(quinoline-5-sulfonyl)-2,3-dihydro-1H-indene-1-carboxamide], at F508delCFTR [1], the Emax was no less than 150% and the concentration giving a half-maximal response (EC50) lay within 3 to 10 µM. Besides, on F508delCFTR [2], the “Maximum % activity (with co-corrector)” value is “+++ (≥350)” and the EC50 was less than 3 µM.

At F508delCFTR [1], `COc1ccc(Br)c2c1C(C(=O)NS(=O)(=O)c1cccc3c(O)cccc13)CC2` (centres unmarked) [Example I-105, 4-bromo-N-(5-hydroxynaphthalene-1-sulfonyl)-7-methoxy-2,3-dihydro-1H-indene-1-carboxamide] gave an Emax of no less than 150% and an EC50 of 3 to 10 µM. In addition, on F508delCFTR [2], the “Maximum % activity (with co-corrector)” value was “+++ (≥350)” and the EC50 was less than 3 µM.

At F508delCFTR [1], `COc1ccc(C)c2c1CC[C@H]2C(=O)NS(=O)(=O)c1cccc2ccccc12` [Example I-108, (1R)-4-methoxy-7-methyl-N-(naphthalene-1-sulfonyl)-2,3-dihydro-1H-indene-1-carboxamide] gave a maximal response (Emax) of no less than 150% and an EC50 of 3 to 10 µM. In addition, at F508delCFTR [2], the “Maximum % activity (with co-corrector)” value is on record as “+++ (≥350)” and the EC50 fell in the range of 3 to 10 µM.

Turning to `COc1ccc(C)c2c1CC[C@@H]2C(=O)NS(=O)(=O)c1cccc2ccccc12` [Example I-109, (1S)-4-methoxy-7-methyl-N-(naphthalene-1-sulfonyl)-2,3-dihydro-1H-indene-1-carboxamide], at F508delCFTR [1], the Emax is no less than 150% and the EC50 fell in the range of 3 to 10 µM. For the same compound, on F508delCFTR [2], the “Maximum % activity (with co-corrector)” value is “+++ (≥350)” and the EC50 is less than 3 µM.

The record behind these values is patent US20180244611A1, “Modulators of the Cystic Fibrosis Transmembrane Conductance Regulator Protein and Methods of Use” (AbbVie S.à.r.l., priority 2017, published 2018).
